Data from article PMC10671715, “Self-Entrapment of Antimicrobial Peptides in Silica Particles for Stable and Effective Antimicrobial Peptide Delivery System” (International Journal of Molecular Sciences, 2023).
Like-named read-outs stand apart in the source and are kept apart here. Marks after values point to notes of the source that are not given here.

Legend:
[1] = test system: E. coli (after trypsin treatment of AMP); experiment: Residual antibacterial activity after trypsin treatment; conditions: 300 μM in 1× PBS, 0.025% trypsin, 37 °C, 3 min, stopped with FBS; overnight culture, OD600; N = 3
Description: (§1) The absorbance value of the bacteria in the absence of AMP was used as the negative control. The absorbance value of the bacteria grown in the presence of trypsinized AMP was subtracted from that of the negative control, and the resulting difference was expressed as a percentage fraction of the negative control, yielding the residual antibacterial activity of AMP after trypsin treatment (Figure 6a).
(§2) Free AMP or AMP@Si was dissolved in 1 × PBS at a concentration of 300 μM and left at 37 °C for 3 min in the presence of 0.025% trypsin, followed by the addition of fetal bovine serum (FBS) to stop the activity of trypsin. Bacteria were incubated overnight with each trypsinized peptide formula, and broth absorbance was measured at 600 nm. As a negative control, the absorbance of the strain grown in the absence of the peptide was set. To determine the remaining antimicrobial activity of AMP after treatment of trypsin, the absorbance of the sample treated with AMP was subtracted from the absorbance of the negative control. The resulting difference was then expressed as a percentage of the absorbance of the negative control.
(§3) (a) The residual antibacterial activity was calculated by taking the difference in optical density at 600 nm between the negative control and the sample containing the trypsinized AMP. It was then divided by the optical density of the negative control and multiplied by 100. Each bacterial solution grown in a medium without AMP is used as a corresponding negative control. […] The image is a 10,000× magnification, the inside image is a 20,000× magnification, and the scale bar represents 1 µm.

[2] = test system: P. aeruginosa (after trypsin treatment of AMP); experiment: as above; conditions: 300 μM in 1× PBS, 0.025% trypsin, 37 °C, 3 min, stopped with FBS; overnight culture, OD600; N = 3
Description: as §1, §2, §3

[3] = test system: S. aureus (after trypsin treatment of AMP); experiment: as above; conditions: 300 μM in 1× PBS, 0.025% trypsin, 37 °C, 3 min, stopped with FBS; overnight culture, OD600; N = 3
Description: as §1, §2, §3

P. aeruginosa = format: cell-based, Pseudomonas aeruginosa (wild type PK01); conditions: 18 h
Description: (§4) Two Gram-negative bacterial strains, namely Escherichia coli (wild type W2110) and Pseudomonas aeruginosa (wild type PK01) and Gram-positive strain, […] (ATCC 29213) were obtained from the Department of Biotechnology and Bioinformatics at Korea University.
(§5) The broth microdilution assay was used to test the antimicrobial activity of AMPs, as previously reported. Briefly, bacteria were grown to mid-logarithmic growth phase in Mueller Hinton Broth (MHB) media at 37 °C. Then, in 96-well plates, 50 µL of peptide solution (0–320 µM) diluted using a 2-fold serial dilution method was mixed with an equal volume of bacterial solution (3 × 10^6 CFU/mL) and incubated for 18 h at 37 °C with shaking at 200 rpm. The negative control was the culture medium itself. […] The assay was performed in triplicate.

S. aureus [4] = format: cell-based, Staphylococcus aureus (ATCC 29213); conditions: 18 h
Description: as §4, §5

Raw264.7 cells = experiment: Cytotoxicity, MTS assay; format: cell-based, mouse; conditions: for Cell viability: 24 h, MTS, N = 3
Description: Free peptides and silica particles loaded with them (AMP@Si) were compared for their cytotoxicity against mouse macrophages (Raw264.7 cells) and their hemolytic activity against RBCs. Free AMP or AMP@Si was added to each well of a 96-well plate in 2-fold serial dilutions to 50 μL with DMEM medium containing 10% FBS and 1% antibiotics. Raw264.7 macrophages at a concentration of 4 × 10^4 cells per 50 μL were added to the wells containing the peptide to give a final volume of 100 μL. Cell proliferation was confirmed by MTS assay (Promega, Madison, WI, USA) after 24 h or 5 days of incubation. The MTS tetrazolium compound was reduced by viable cells to generate a colored formazan product. The intensity of the color at 490 nm is proportional to the number of viable cells in the sample. To calculate cell viability, the absorbance of cells treated with the peptide was divided by the absorbance of cells that were not treated with the peptide. The resulting quotient was then expressed as a percentage. […] The supernatant (100 μL) was collected after centrifugation at 1000× g for 5 min, and the absorbance (A) was measured at 570 nm. The value of “zero hemolysis” was determined by the absorbance of PBS alone, and 100% hemolysis was determined by the absorbance of the supernatant obtained from 1% (v/v) Triton X-100-treated RBCs. The percentage of hemolysis was calculated as hemolysis (%) = (AAMP − APBS)/(ATriton − APBS) × 100.
Figure 7 The hemolytic activity and cytotoxicity of AMPs. […] (b) The cytotoxicity of AMP was measured 24 h after the addition of each indicated concentration of AMP to Raw264.7 cells grown overnight. Cell survival is expressed as a percentage of the negative control grown without AMP.
Figure S4. […] The cytotoxicity of AMP was measured 5 days after incubation of Raw 264.7 cells (4 x 10^5 cells/ mL) in the presence of each indicated concentration of AMP Cell survival was expressed as a percentage of the negative control grown without AMP. […]

[5] = test system: sheep red blood cells (RBCs); experiment: Hemolytic activity assay; format: cell-based; conditions: at 77.5 μM (free peptides: up to 77.5 μM); 37 °C, 1 h, A570, 100% = 1% Triton X-100; N = 3
Description: Free peptides and silica particles loaded with them (AMP@Si) were compared for their cytotoxicity against mouse macrophages (Raw264.7 cells) and their hemolytic activity against RBCs. Free AMP or AMP@Si was added to each well of a 96-well plate in 2-fold serial dilutions to 50 μL with DMEM medium containing 10% FBS and 1% antibiotics. Raw264.7 macrophages at a concentration of 4 × 10^4 cells per 50 μL were added to the wells containing the peptide to give a final volume of 100 μL. Cell proliferation was confirmed by MTS assay (Promega, Madison, WI, USA) after 24 h or 5 days of incubation. The MTS tetrazolium compound was reduced by viable cells to generate a colored formazan product. […] To calculate cell viability, the absorbance of cells treated with the peptide was divided by the absorbance of cells that were not treated with the peptide. The resulting quotient was then expressed as a percentage. […] The supernatant (100 μL) was collected after centrifugation at 1000× g for 5 min, and the absorbance (A) was measured at 570 nm. The value of “zero hemolysis” was determined by the absorbance of PBS alone, and 100% hemolysis was determined by the absorbance of the supernatant obtained from 1% (v/v) Triton X-100-treated RBCs. The percentage of hemolysis was calculated as hemolysis (%) = (AAMP − APBS)/(ATriton − APBS) × 100. […]

E. coli = format: cell-based, Escherichia coli (wild type W2110); conditions: 18 h
Description: as §4, §5

S. aureus [6] = test system: S. aureus; design: method as in PMID 33236626; conditions: cited from earlier work
[7] = free peptide, MHB, 2-fold dilution 0–320 µM, 37 °C, OD600, mean ± standard error of three replicate experiments

With “Ac-RKKRRQRRRGSSKRIVQRIKDFLR-NH2 [CPP-KR12]” as the compound, how does the “Residual antibacterial activity after trypsin treatment” value (“Residual antibacterial activity” below) [1] read?
The value was “approximately 10%”.

What about the “Residual antibacterial activity” value [2] of the same compound?
The value was “approximately 15%”.

What about the “Residual antibacterial activity” value [3] of the same compound?
Its value is “approximately 15%”.

And the “Minimum inhibitory concentration (MIC)” value (P. aeruginosa; [7])?
The value was 6.12 ± 3.72 µM.

And the “Minimum inhibitory concentration (MIC)” value (S. aureus [4]; [7])?
Its value is 22.80 ± 8.48 µM.

What about the Cytotoxicity (Raw264.7 cells; 6 µM) of the same compound?
The Cytotoxicity was “not cytotoxic”.

What about the Cell viability (Raw264.7 cells; 19.38 μM) of the same compound?
Its Cell viability is 80%.

What about the Cell viability (Raw264.7 cells; 77.5 μM) of the same compound?
The Cell viability was 10%.

What about the Hemolysis [5] of the same compound?
Its Hemolysis is “less than 1%”.

And the entrapment efficiency (EE)?
Its entrapment efficiency (EE) is 95%.

And the “Minimum inhibitory concentration (MIC)” value (E. coli; [7])?
Its value is 12.09 ± 4.97 µM.

Which entrapment efficiency (EE) does the source give for `CC(=O)N[C@@H](CCCNC(=N)N)C(=O)N[C@@H](CCCCN)C(=O)N[C@@H](CCCCN)C(=O)N[C@@H](CCCNC(=N)N)C(=O)N[C@@H](CCCNC(=N)N)C(=O)N[C@@H](CCC(N)=O)C(=O)N[C@@H](CCCNC(=N)N)C(=O)N[C@@H](CCCNC(=N)N)C(=O)N[C@@H](CCCNC(=N)N)C(N)=O` here?
The entrapment efficiency (EE) was 95%.

For “YGRKKRRQRRKRIVQRIKDFLR [TAT-KR-12, literature peptide developed for treatment of intracellular S. aureus infection]”, which “Antibacterial activity against S. aureus” value (S. aureus [6]) is on record?
The value was “enhanced antibacterial activity”.

Which results are given for “Ac-KRIVQRIKDFLR-NH2 [KR12, reference compound]”?
Minimum inhibitory concentration (MIC) (P. aeruginosa): 181.98 ± 68.20 µM; Minimum inhibitory concentration (MIC) (S. aureus [4]): >320 ^a µM; Hemolysis [5]: less than 1%; Minimum inhibitory concentration (MIC) (E. coli): 103.36 ± 25.82 µM
